Values of other authors as cited in patent US20060063742A1, “Method of treatment for or protection against lymphedema” (priority 2004, published 2006).

Tests used:
mice = settings: intravenously, doses higher than 3750 mg/kg
dogs = settings: intravenously, doses higher than 3750 mg/kg
humans = settings: doses exceeding 40 g/m^2

| SMILES | accepted oral LD50 | adverse effects (mice) | adverse effects (dogs) | adverse effects (humans) |
| --- | --- | --- | --- | --- |
| [Cl-].[Na+] [common table salt] | 3750 mg/kg |  |  |  |
| O=S(=O)([O-])CCSSCCS(=O)(=O)[O-].[Na+].[Na+] [Dimesna, disodium 2,2′-dithiobis ethane sulfonate] |  | no adverse effects | no adverse effects | no adverse effects |
